Patent publication US7314953B2, “Treatment of lung cells with histone deacetylase inhibitors” (Errant Gene Therapeutics, LLC, priority 2001, dated 2008)

Key:
non-CF HBE cells = test: Short circuit current (Ussing chamber), electrogenic sodium transport in non-CF HBE cells derived from COPD patients; type: cell-based, human; conditions: Homo sapiens; 1 μM, non-CF HBE cells
Procedure: Studies were carried out using human bronchial epithelial (HBE) cells derived from five cystic fibrosis (CF) patients and five nonCF patients. The protocol is described in Devor, D. C. et al., “Pharmacological modulation of ion transport across wild-type and DeltaF508 CFTR-expressing human bronchial epithelia,” Am. J. Physiol. 279: C461-C479, 2000.
Cells were isolated and grown on filters for short circuit current (Isc) studies. Cells were mounted in modified Ussing chambers and the Isc monitored. The change in Isc in response to amiloride (10 μM) was taken as a measure of net electrogenic sodium transport after equilibration for 20 minutes. Forskolin (2 μM), UTP (100 μM), and genistein (30 μM) were used to stimulate anion secretion. Results from 6 to 12 similar experiments were obtained.
7-Phenyl-2,4,6-heptatrienoylhydroxamic acid ([…]) was added to the culture medium and the cells were incubated for 24, 48, and 72 hours. Cells were fed every 24 hours with fresh media containing the compound. Control cells received an equivalent amount of vehicle (DMSO). Short circuit current measurements were also made on T84 cells, a human colonic epithethial cell line that secretes chloride by a CFTR mediated mechanism, and on M1 cells, a mouse kidney cell line that absorbs sodium by an ENaC mediated mechanism.
Table 3 sumarizes the results of treating non-CF cells derived from COPD patients with 30 μM 7-phenyl-2,4,6-heptatrienoylhydroxamic acid for 72 hours. Electrogenic sodium transport was estimated from the amiloride (5 μM) sensitive short circuit current. Anion secretion was estimated from the forskolin (2 μM) stimulated short circuit current after the addition of amiloride. The treatment of cells with 30 μM 7-phenyl-2,4,6-heptatrienoylhydroxamic acid for 72 hours caused an inhibition in the amiloride sensitive sodium transport of nearly 80%. This effect was concentration and dose dependent with a half-maximal inhibition concentration of 13 μM±3 μM and a half-maximal inhibition at 24 hours.

CF HBE cells = test: Short circuit current (Ussing chamber), electrogenic sodium transport in CF HBE cells; type: cell-based, human; conditions: HBE cells treated for 72 hours
histone deacetylase = histone deacetylase inhibitor; cited from earlier work

CC(/C=C/C(=O)NO)=C\[C@@H](C)C(=O)c1ccc(N(C)C)cc1 [Trichostatin, reference compound]
inhibition at 1 µM (non-CF HBE cells): 70%
effect on sodium transport (CF HBE cells; 3 nM, 30 nM, and 100 nM): no effect
inhibition at 1 µM (CF HBE cells; Homo sapiens, 1 μM): 84%
Ki (histone deacetylase): low
